From US10670605B2, “Cysteine reactive probes and uses thereof” (The Scripps Research Institute, priority 2015, dated 2020)

What was measured:
Assay in all cases: Competitive isoTOP-ABPP in situ (fragment-treated cells)
Type in all cases: cell-based
[1] = target: T1, cysteines in MDA-MB-231 and Ramos cells (Homo sapiens, UniProt P10599)
T1 sequence (P10599 1-105): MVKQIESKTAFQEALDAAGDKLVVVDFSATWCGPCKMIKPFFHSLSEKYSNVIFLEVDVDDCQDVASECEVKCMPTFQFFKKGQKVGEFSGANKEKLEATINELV

[2] = target: T2, cysteines in MDA-MB-231 and Ramos cells (Homo sapiens, UniProt P25205)
T2 sequence (P25205 1-808): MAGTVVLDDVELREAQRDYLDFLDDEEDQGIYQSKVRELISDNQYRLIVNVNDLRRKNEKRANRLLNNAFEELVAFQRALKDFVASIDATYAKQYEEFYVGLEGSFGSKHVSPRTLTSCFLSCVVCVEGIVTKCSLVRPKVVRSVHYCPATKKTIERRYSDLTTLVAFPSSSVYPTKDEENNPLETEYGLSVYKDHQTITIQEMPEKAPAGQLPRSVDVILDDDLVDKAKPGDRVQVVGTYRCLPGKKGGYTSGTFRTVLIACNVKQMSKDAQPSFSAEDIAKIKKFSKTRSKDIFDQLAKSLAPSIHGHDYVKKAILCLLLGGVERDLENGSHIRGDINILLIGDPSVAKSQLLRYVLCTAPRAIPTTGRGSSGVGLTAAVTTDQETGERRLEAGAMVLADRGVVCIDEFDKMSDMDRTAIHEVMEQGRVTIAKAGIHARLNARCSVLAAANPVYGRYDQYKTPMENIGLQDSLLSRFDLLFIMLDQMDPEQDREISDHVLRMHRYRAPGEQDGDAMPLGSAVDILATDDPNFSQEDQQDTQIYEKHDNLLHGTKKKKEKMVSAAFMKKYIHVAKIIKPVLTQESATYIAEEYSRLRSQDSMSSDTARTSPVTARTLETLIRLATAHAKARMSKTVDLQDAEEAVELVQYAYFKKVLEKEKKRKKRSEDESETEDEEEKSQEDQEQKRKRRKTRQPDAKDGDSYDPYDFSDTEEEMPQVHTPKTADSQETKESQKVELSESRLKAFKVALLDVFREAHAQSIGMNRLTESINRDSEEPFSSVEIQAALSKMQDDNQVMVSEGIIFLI

[3] = target: T3, cysteines in MDA-MB-231 and Ramos cells (Homo sapiens, UniProt Q86SX6)
T3 sequence (Q86SX6 32-157): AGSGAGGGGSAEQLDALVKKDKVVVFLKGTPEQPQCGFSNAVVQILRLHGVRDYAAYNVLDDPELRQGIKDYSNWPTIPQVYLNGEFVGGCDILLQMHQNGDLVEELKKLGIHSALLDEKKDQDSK

[4] = target: T4, cysteines in MDA-MB-231 and Ramos cells (Homo sapiens, UniProt Q96RN5)
T4 sequence (Q96RN5 1-788): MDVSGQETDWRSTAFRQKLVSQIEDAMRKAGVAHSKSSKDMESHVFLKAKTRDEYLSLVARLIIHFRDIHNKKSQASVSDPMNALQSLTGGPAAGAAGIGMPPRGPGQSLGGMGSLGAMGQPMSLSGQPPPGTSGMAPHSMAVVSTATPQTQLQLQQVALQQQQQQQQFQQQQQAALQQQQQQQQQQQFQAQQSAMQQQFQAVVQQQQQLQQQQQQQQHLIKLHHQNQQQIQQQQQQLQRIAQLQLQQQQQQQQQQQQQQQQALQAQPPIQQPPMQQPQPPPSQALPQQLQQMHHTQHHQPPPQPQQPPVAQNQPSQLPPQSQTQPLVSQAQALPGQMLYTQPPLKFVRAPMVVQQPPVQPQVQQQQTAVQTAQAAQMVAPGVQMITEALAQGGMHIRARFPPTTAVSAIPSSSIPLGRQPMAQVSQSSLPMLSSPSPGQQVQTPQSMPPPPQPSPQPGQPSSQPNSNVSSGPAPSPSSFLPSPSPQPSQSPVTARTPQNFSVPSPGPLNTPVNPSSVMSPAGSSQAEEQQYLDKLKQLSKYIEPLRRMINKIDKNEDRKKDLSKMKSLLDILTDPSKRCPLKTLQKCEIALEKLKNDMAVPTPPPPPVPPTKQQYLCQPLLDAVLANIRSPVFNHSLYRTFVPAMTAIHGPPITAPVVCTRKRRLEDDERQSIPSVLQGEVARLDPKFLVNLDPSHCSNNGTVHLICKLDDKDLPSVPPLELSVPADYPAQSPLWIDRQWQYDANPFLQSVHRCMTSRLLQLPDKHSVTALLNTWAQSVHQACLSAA

[5] = target: T5, cysteines in MDA-MB-231 and Ramos cells (Homo sapiens, UniProt Q13162)
T5 sequence (Q13162 38-271): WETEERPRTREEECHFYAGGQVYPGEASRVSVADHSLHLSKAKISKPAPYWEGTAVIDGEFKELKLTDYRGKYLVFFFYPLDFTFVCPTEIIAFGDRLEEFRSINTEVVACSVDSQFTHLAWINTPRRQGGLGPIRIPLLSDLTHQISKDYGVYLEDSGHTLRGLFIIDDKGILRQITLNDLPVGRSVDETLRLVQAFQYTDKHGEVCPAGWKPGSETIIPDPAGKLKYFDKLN

[6] = target: T6, cysteines in MDA-MB-231 and Ramos cells (Homo sapiens, UniProt Q99439)
T6 sequence (Q99439 1-309): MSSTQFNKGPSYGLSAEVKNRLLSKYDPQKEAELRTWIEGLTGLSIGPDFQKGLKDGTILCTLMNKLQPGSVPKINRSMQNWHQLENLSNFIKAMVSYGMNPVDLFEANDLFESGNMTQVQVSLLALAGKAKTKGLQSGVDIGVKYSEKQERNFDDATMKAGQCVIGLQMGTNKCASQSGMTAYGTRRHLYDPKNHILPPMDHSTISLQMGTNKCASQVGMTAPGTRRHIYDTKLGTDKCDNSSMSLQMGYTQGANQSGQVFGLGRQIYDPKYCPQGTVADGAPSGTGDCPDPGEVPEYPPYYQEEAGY

| Compound | isoTOP-ABPP ratio P10599_C32 ([1]; 200 μM, insitu, 231) | isoTOP-ABPP ratio P25205_C119 ([2]; 200 μM, insitu, 231) | isoTOP-ABPP ratio Q86SX6_C67 ([3]; 200 μM, insitu, 231) | isoTOP-ABPP ratio Q13162_C51 ([5]; 200 μM, insitu, 231) | isoTOP-ABPP ratio Q99439_C164 ([6]; 200 μM, insitu, 231) | isoTOP-ABPP ratio Q96RN5_C618 ([4]; 200 μM, insitu, 231) | further results |
| --- | --- | --- | --- | --- | --- | --- | --- |
| COc1ccc2c(c1)CCCN2C(=O)CCl [compound 2] | – | – | – | – | – | – | isoTOP-ABPP reactivity P10599_C32 TXN ([1]; 200 μM, insitu, 231): 7.9; isoTOP-ABPP reactivity P25205_C119 MCM3 ([2]; 200 μM, insitu, 231): 3.5; isoTOP-ABPP reactivity Q865X6_C67 GLRX5 ([3]; 200 μM, insitu, 231): 1.1; isoTOP-ABPP reactivity O96RN5_C618 MED15 ([4]; 200 μM, insitu, 231): 6.4; isoTOP-ABPP reactivity Q13162_C51 PRDX4 ([5]; 200 μM, insitu, 231): 4.6 |
| COc1ccc(C2CC(c3cccs3)=NN2C(=O)CCl)cc1 (centres unmarked) [compound 4] | – | – | – | – | – | – | isoTOP-ABPP reactivity P10599_C32 TXN ([1]; 100 μM in situ 231): 3.3; isoTOP-ABPP reactivity P25205_C119 MCM3 ([2]; 100 μM in situ 231): 4.3; isoTOP-ABPP reactivity Q865X6_C67 GLRX5 ([3]; 100 μM in situ 231): 1.4; isoTOP-ABPP reactivity O96RN5_C618 MED15 ([4]; 100 μM in situ 231): 4.5; isoTOP-ABPP reactivity Q13162_C51 PRDX4 ([5]; 100 μM in situ 231): 1.2; isoTOP-ABPP reactivity Q99439_C164 CNN2 ([6]; 100 μM in situ 231): 1.5 |
| COc1cc2c(cc1OC)CN(C(=O)CCl)CC2 [compound 8] | – | – | – | – | – | – | isoTOP-ABPP reactivity P10599_C32 TXN ([1]; 200 μM, insitu, 231): 5.9; isoTOP-ABPP reactivity P25205_C119 MCM3 ([2]; 200 μM, insitu, 231): 3.5; isoTOP-ABPP reactivity Q865X6_C67 GLRX5 ([3]; 200 μM, insitu, 231): 1.0; isoTOP-ABPP reactivity O96RN5_C618 MED15 ([4]; 200 μM, insitu, 231): 20.0; isoTOP-ABPP reactivity Q13162_C51 PRDX4 ([5]; 200 μM, insitu, 231): 1.4; isoTOP-ABPP reactivity Q99439_C164 CNN2 ([6]; 200 μM, insitu, 231): 1.1 |
| O=C(CCl)N1CCC(Cc2ccccc2)CC1 [compound 9] | – | – | – | – | – | – | isoTOP-ABPP reactivity P10599_C32 TXN ([1]; 200 μM, insitu, 231): 20.0; isoTOP-ABPP reactivity P25205_C119 MCM3 ([2]; 200 μM, insitu, 231): 1.9; isoTOP-ABPP reactivity Q865X6_C67 GLRX5 ([3]; 200 μM, insitu, 231): 5.1; isoTOP-ABPP reactivity Q13162_C51 PRDX4 ([5]; 200 μM, insitu, 231): 3.3; isoTOP-ABPP reactivity Q99439_C164 CNN2 ([6]; 200 μM, insitu, 231): 4.7 |
| O=C(CCl)N1CCN(S(=O)(=O)c2ccccc2F)CC1 [compound 10] | 3.8 | 2.3 | 1.3 | 2.0 | 1.2 | – | isoTOP-ABPP ratio Q86SX6_C67 ([3]; 200 μM, insitu, ramos): 1.1; isoTOP-ABPP ratio Q99439_C164 ([6]; 200 μM, insitu, ramos): 1.3 |
| Cn1cc(S(=O)(=O)N2CCOCC2)cc1C(=O)NC(=O)CCl [compound 11] | – | – | – | – | – | – | isoTOP-ABPP ratio P10599_C32 ([1]; 100 μM in situ 231): 13.0; isoTOP-ABPP ratio P25205_C119 ([2]; 100 μM in situ 231): 0.7; isoTOP-ABPP ratio Q86SX6_C67 ([3]; 100 μM in situ 231): 1.4; isoTOP-ABPP ratio Q96RN5_C618 ([4]; 100 μM in situ 231): 1.0; isoTOP-ABPP ratio Q13162_C51 ([5]; 100 μM in situ 231): 0.9; isoTOP-ABPP ratio Q99439_C164 ([6]; 100 μM in situ 231): 0.6 |
| O=C(CCl)NC(=O)NC12CC3CC(CC(C3)C1)C2 [compound 12] | 20.0 | 1.0 | 1.6 | 1.0 | 0.9 | 20.0 | – |
| O=C(CCl)NCCc1c[nH]c2ccccc12 [compound 13] | 7.9 | 1.1 | 10.3 | – | 0.9 | 1.0 | isoTOP-ABPP ratio P10599_C32 ([1]; 200 μM, insitu, ramos): 4.1; isoTOP-ABPP ratio P25205_C119 ([2]; 200 μM, insitu, ramos): 1.3; isoTOP-ABPP ratio Q86SX6_C67 ([3]; 200 μM, insitu, ramos): 12.4; isoTOP-ABPP ratio Q96RN5_C618 ([4]; 200 μM, insitu, ramos): 1.4; isoTOP-ABPP ratio Q99439_C164 ([6]; 200 μM, insitu, ramos): 1.3 |
| O=C(CCl)NC12CC3CC(CC(C3)C1)C2 [compound 21] | 3.9 | 1.1 | 1.4 | 1.7 | 0.9 | 1.0 | – |
| CC(C)CCOCCNC(=O)CCl [compound 27] | 2.5 | 1.0 | 1.5 | 0.9 | – | 0.8 | – |
| COc1ccccc1OCCNC(=O)CCl [compound 28] | 20.0 | – | – | – | 0.9 | 0.7 | – |
| O=C(CCl)N1CCN(CC(=O)N2CCOCC2)CC1 [compound 29] | – | – | – | – | – | – | isoTOP-ABPP ratio P10599_C32 ([1]; 200 μM, insitu, ramos): 1.9; isoTOP-ABPP ratio P25205_C119 ([2]; 200 μM, insitu, ramos): 1.3; isoTOP-ABPP ratio Q86SX6_C67 ([3]; 200 μM, insitu, ramos): 1.2; isoTOP-ABPP ratio Q96RN5_C618 ([4]; 200 μM, insitu, ramos): 1.3; isoTOP-ABPP ratio Q99439_C164 ([6]; 200 μM, insitu, ramos): 1.0 |
| C=CC(=O)N(Cc1cccnc1)c1cc(C(F)(F)F)cc(C(F)(F)F)c1 [compound 31] | 1.2 | 0.5 | – | – | 0.7 | 0.9 | isoTOP-ABPP ratio P10599_C32 ([1]; 200 μM, insitu, ramos): 1.7; isoTOP-ABPP ratio Q86SX6_C67 ([3]; 200 μM, insitu, ramos): 0.7; isoTOP-ABPP ratio Q13162_C51 ([5]; 200 μM, insitu, ramos): 1.3; isoTOP-ABPP ratio Q99439_C164 ([6]; 200 μM, insitu, ramos): 1.3 |
| C=CC(=O)Nc1cc(F)c(N2CCN(C(=O)OC(C)(C)C)CC2)c(F)c1 [compound 38] | 2.1 | 0.9 | 1.0 | 2.4 | 1.5 | 1.4 | – |
| Cc1ccc(C=C(C#N)C(=O)NCCN2CCOCC2)cc1 [compound 41] | 0.4 | 0.9 | 1.0 | – | 0.4 | – | – |
| CC1CCc2ccccc2N1C(=O)CCl (centres unmarked) [compound 45] | 5.7 | 6.2 | 9.1 | 2.3 | 1.8 | 20.0 | – |
| O=C(CCl)Nc1cccc2ncccc12 [compound 51] | 13.9 | 2.6 | 1.0 | – | – | 2.1 | – |
